Source: ChEMBL document CHEMBL1201862, “PubChem BioAssay data set” (2004)
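48-hour exposure; five concentrations; linearly interpolated endpoints. Here, GI50 denotes the concentration required for 50% inhibition of growth.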 Activity calls are given as the source filed them. Rule as the data show it: active = GI50 up to about 1.1 µM and inactive = higher.

Legend:
Assay in all cases: NCI anticancer screen, dose series, 48 h
[1] = system: SR
[2] = system: SNB-19
[3] = system: Malme-3M
[4] = system: TK-10
[5] = system: MCF7
[6] = system: Hs-578T
[7] = system: HCT-116
[8] = system: SF-268
[9] = system: MDA-N
[10] = system: COLO 205
[11] = system: SN12C
[12] = system: OVCAR-4
[13] = system: 786-0
[14] = system: HT-29
[15] = system: SF-539
[16] = system: CAKI-1
[17] = system: IGROV-1
[18] = system: MDA-MB-435
[19] = system: HL-60
[20] = system: HCT-15
[21] = system: SK-MEL-28
[22] = system: OVCAR-3
[23] = system: RXF 393
[24] = system: SW-620
[25] = system: SF-295
[26] = system: NCI-H522
[27] = system: K562
[28] = system: CCRF-CEM
[29] = system: ACHN
[30] = system: A549
[31] = system: DU-145
[32] = system: NCI-H23
[33] = system: MDA-MB-231
[34] = system: LOX IMVI
[35] = system: SK-MEL-2
[36] = system: HOP-62
[37] = system: SK-OV-3
[38] = system: RPMI-8226
[39] = system: NCI-H226
[40] = system: M14
[41] = system: SK-MEL-5
[42] = system: U-251
[43] = system: UO-31
[44] = system: SNB-75
[45] = system: PC-3
[46] = system: NCI/ADR-RES
[47] = system: BT-549
[48] = system: UACC-257
[49] = system: A498
[50] = system: OVCAR-8
[51] = system: KM12
[52] = system: HOP-92
[53] = system: MOLT-4
[54] = system: UACC-62
[55] = system: NCI-H460
[56] = system: OVCAR-5
[57] = system: EKVX
[58] = system: T47D
[59] = system: HCC 2998

SMILES: CCOC(=O)c1c2c(n(C)c1-c1ccccc1)C(=O)C(C)=CC2=O
- GI50 [1]: 1.91 µM (inactive)
- GI50 [2]: 13.5 µM (inactive)
- GI50 [3]: 9.04 µM (inactive)
- GI50 [4]: 8.43 µM (inactive)
- GI50 [5]: 2.37 µM (inactive)
- GI50 [6]: 18.4 µM (inactive)
- GI50 [7]: 3.6 µM (inactive)
- GI50 [8]: 8.11 µM (inactive)
- GI50 [9]: 2 µM (inactive)
- GI50 [10]: 1.57 µM (inactive)
- GI50 [11]: 7.69 µM (inactive)
- GI50 [12]: 7.05 µM (inactive)
- GI50 [13]: 15.2 µM (inactive)
- GI50 [14]: 5.79 µM (inactive)
- GI50 [15]: 4.05 µM (inactive)
- GI50 [16]: 13.5 µM (inactive)
- GI50 [17]: 5.46 µM (inactive)
- GI50 [18]: 1.91 µM (inactive)
- GI50 [19]: 2.94 µM (inactive)
- GI50 [20]: 3.36 µM
- GI50 [21]: 13.9 µM (inactive)
- GI50 [22]: 2.86 µM (inactive)
- GI50 [23]: 8.97 µM (inactive)
- GI50 [24]: 4.06 µM (inactive)
- GI50 [25]: 19 µM (inactive)
- GI50 [26]: 1.69 µM (inactive)
- GI50 [27]: 3.44 µM (inactive)
- GI50 [28]: 2.51 µM (inactive)
- GI50 [29]: 7.28 µM (inactive)
- GI50 [30]: 12.2 µM (inactive)
- GI50 [31]: 17.5 µM (inactive)
- GI50 [32]: 11.6 µM (inactive)
- GI50 [33]: 2.08 µM (inactive)
- GI50 [34]: 3.48 µM (inactive)
- GI50 [35]: 13.6 µM (inactive)
- GI50 [36]: 17.3 µM (inactive)
- GI50 [37]: 16.7 µM (inactive)
- GI50 [38]: 1.9 µM (inactive)
- GI50 [39]: 11 µM (inactive)
- GI50 [40]: 3.66 µM (inactive)
- GI50 [41]: 9.62 µM (inactive)
- GI50 [42]: 7.8 µM (inactive)
- GI50 [43]: 12.2 µM (inactive)
- GI50 [44]: 14.9 µM (inactive)
- GI50 [45]: 11.4 µM (inactive)
- GI50 [46]: 7.83 µM (inactive)
- GI50 [47]: 13.2 µM (inactive)
- GI50 [48]: 2.61 µM (inactive)
- GI50 [49]: 18.2 µM (inactive)
- GI50 [50]: 5.7 µM (inactive)
- GI50 [51]: 6.04 µM (inactive)
- GI50 [52]: 2.07 µM (inactive)
- GI50 [53]: 2.55 µM (inactive)
- GI50 [54]: 10.9 µM (inactive)
- GI50 [55]: 20.8 µM (inactive)
- GI50 [56]: 6.05 µM (inactive)
- GI50 [57]: 5.87 µM (inactive)
- GI50 [58]: 3.13 µM (inactive)

SMILES: CCOC(=O)C1C(O)CC2c3ccccc3-c3ccccc3C21 (configuration not stated)
- GI50 [1]: > 100 µM (inactive)
- GI50 [2]: 33.5 µM (inactive)
- GI50 [3]: > 100 µM (inactive)
- GI50 [4]: 55.2 µM (inactive)
- GI50 [5]: 49.5 µM (inactive)
- GI50 [6]: 21.3 µM (inactive)
- GI50 [7]: 19.8 µM (inactive)
- GI50 [8]: 31.4 µM (inactive)
- GI50 [9]: 69 µM (inactive)
- GI50 [10]: > 100 µM (inactive)
- GI50 [11]: > 100 µM (inactive)
- GI50 [12]: > 100 µM (inactive)
- GI50 [13]: 30.4 µM (inactive)
- GI50 [14]: 68.1 µM (inactive)
- GI50 [16]: > 100 µM (inactive)
- GI50 [17]: 47.1 µM (inactive)
- GI50 [18]: 41.8 µM (inactive)
- GI50 [19]: > 100 µM (inactive)
- GI50 [20]: > 100 µM
- GI50 [21]: > 100 µM (inactive)
- GI50 [22]: > 100 µM (inactive)
- GI50 [23]: 29.3 µM (inactive)
- GI50 [24]: 48.4 µM (inactive)
- GI50 [25]: 43.7 µM (inactive)
- GI50 [26]: 35.4 µM (inactive)
- GI50 [27]: 96.2 µM (inactive)
- GI50 [28]: 8.85 µM (inactive)
- GI50 [29]: 27.3 µM (inactive)
- GI50 [30]: 44.9 µM (inactive)
- GI50 [31]: > 100 µM (inactive)
- GI50 [32]: 42.5 µM (inactive)
- GI50 [33]: 25.9 µM (inactive)
- GI50 [34]: > 100 µM (inactive)
- GI50 [35]: > 100 µM (inactive)
- GI50 [36]: 31.2 µM (inactive)
- GI50 [37]: 21.2 µM (inactive)
- GI50 [38]: > 100 µM (inactive)
- GI50 [39]: 3.2 µM (inactive)
- GI50 [40]: > 100 µM (inactive)
- GI50 [41]: 50.5 µM (inactive)
- GI50 [42]: 23.8 µM (inactive)
- GI50 [43]: > 100 µM (inactive)
- GI50 [44]: 27.1 µM (inactive)
- GI50 [45]: > 100 µM (inactive)
- GI50 [46]: 40.5 µM (inactive)
- GI50 [47]: > 100 µM (inactive)
- GI50 [48]: > 100 µM (inactive)
- GI50 [49]: 20.2 µM (inactive)
- GI50 [50]: 21.5 µM (inactive)
- GI50 [51]: 36.1 µM (inactive)
- GI50 [52]: 20.1 µM (inactive)
- GI50 [53]: > 100 µM (inactive)
- GI50 [54]: 44.4 µM (inactive)
- GI50 [55]: > 100 µM (inactive)
- GI50 [56]: > 100 µM (inactive)
- GI50 [57]: > 100 µM (inactive)
- GI50 [58]: > 100 µM (inactive)

SMILES: Nc1ccc2c(c1)nc1n2C(c2c(F)cccc2F)SC1 (configuration not stated)
- GI50 [1]: > 100 µM (inactive)
- GI50 [2]: > 100 µM (inactive)
- GI50 [3]: > 100 µM (inactive)
- GI50 [4]: > 100 µM (inactive)
- GI50 [5]: > 100 µM (inactive)
- GI50 [6]: > 100 µM (inactive)
- GI50 [7]: > 100 µM (inactive)
- GI50 [8]: > 100 µM (inactive)
- GI50 [9]: > 100 µM (inactive)
- GI50 [10]: > 100 µM (inactive)
- GI50 [11]: > 100 µM (inactive)
- GI50 [12]: > 100 µM (inactive)
- GI50 [13]: > 100 µM (inactive)
- GI50 [59]: > 100 µM (inactive)
- GI50 [14]: > 100 µM (inactive)
- GI50 [15]: > 100 µM (inactive)
- GI50 [16]: 53.7 µM (inactive)
- GI50 [17]: > 100 µM (inactive)
- GI50 [18]: > 100 µM (inactive)
- GI50 [19]: 48.5 µM (inactive)
- GI50 [20]: > 100 µM
- GI50 [21]: > 100 µM (inactive)
- GI50 [22]: > 100 µM (inactive)
- GI50 [23]: > 100 µM (inactive)
- GI50 [24]: > 100 µM (inactive)
- GI50 [25]: > 100 µM (inactive)
- GI50 [26]: > 100 µM (inactive)
- GI50 [27]: > 100 µM (inactive)
- GI50 [28]: 61.2 µM (inactive)
- GI50 [29]: > 100 µM (inactive)
- GI50 [30]: > 100 µM (inactive)
- GI50 [31]: > 100 µM (inactive)
- GI50 [32]: > 100 µM (inactive)
- GI50 [33]: > 100 µM (inactive)
- GI50 [34]: > 100 µM (inactive)
- GI50 [35]: > 100 µM (inactive)
- GI50 [36]: > 100 µM (inactive)
- GI50 [37]: > 100 µM (inactive)
- GI50 [38]: > 100 µM (inactive)
- GI50 [40]: > 100 µM (inactive)
- GI50 [41]: 47.8 µM (inactive)
- GI50 [42]: > 100 µM (inactive)
- GI50 [43]: 97.7 µM (inactive)
- GI50 [44]: > 100 µM (inactive)
- GI50 [45]: > 100 µM (inactive)
- GI50 [46]: > 100 µM (inactive)
- GI50 [47]: > 100 µM (inactive)
- GI50 [48]: > 100 µM (inactive)
- GI50 [49]: > 100 µM (inactive)
- GI50 [50]: > 100 µM (inactive)
- GI50 [51]: > 100 µM (inactive)
- GI50 [53]: 26.9 µM (inactive)
- GI50 [54]: > 100 µM (inactive)
- GI50 [55]: > 100 µM (inactive)
- GI50 [56]: > 100 µM (inactive)
- GI50 [57]: > 100 µM (inactive)
- GI50 [58]: 76.4 µM (inactive)
